# Reference: US8580968B2, “Benzothiazole and benzooxazole derivatives and methods of use” (AbbVie Inc., priority 2007, dated 2013)
# How the values were obtained:
# Male Sprague Dawley rats = experiment: analgesic effect against neuropathic pain (L5/L6 spinal nerve ligation, von Frey mechanical allodynia); type: in vivo, rat; conditions: intraperitoneal injection
# Procedure: Animals were prepared for testing, by use of a surgical procedure that induces neuropathic pain in one paw. Male Sprague Dawley rats were purchased from Charles River (Portage, Mich.). Prior to surgery, animals were housed in groups and maintained in a temperature-regulated environment. Following nerve ligation surgery, animals were housed in groups, and had access to food and water ad libitum.
# The L5 and L6 spinal nerves of anesthetized rats were tightly ligated in a manner described previously (see Kim and Chung, Pain (1992) vol. 50 pp. 355-363). An incision was made on the dorsal portion of the hip and the muscle was blunt-dissected to reveal the spinal processes. […] The paw affected by the surgical procedure (the left paw) develops an allodynic response, a hypersensitivity to mechanical and other stimuli; neuropathic pain is assessed as an increased sensitivity in the surgically affected (left) allodynic paw compared to the control paw on the right side, and measured by comparing the response of the (left side) allodynic paw to the response of the unaffected right side control paw.
# For the assessment of neuropathic pain, mechanical allodynia in the affected paw of animals that had undergone spinal nerve ligation was evaluated using testing with von Frey filaments. […]
# [1] = tested on: adult osteoarthritic rats; experiment: osteoarthritis model (MIA-induced knee joint osteoarthritis, hind limb grip force); type: in vivo, rat; conditions: intraperitoneal injection; for effect on hind limb grip force: p<0.01, 20 days after MIA
# Procedure: Unilateral knee joint osteoarthritis was induced in rats by a single intra-articular (i.a.) injection of sodium monoiodoacetate (MIA) (Sigma-Aldrich, St. Louis, Mo.) (3 mg in 50 μl sterile isotonic saline) into the right knee joint cavity under light (1-3%) isoflurane anesthesia.
# Pain behavior was assessed by measurement of hind limb grip force (GF) in adult osteoarthritic rats. Following the unilateral injection of MIA (male Sprague Dawley, 325-350 g, tested at 20 days following MIA injection), a behavioral measure of activity-induced pain was carried out. Measurements of the peak hind limb grip force were conducted by recording the maximum compressive force (CFmax), in grams of force, exerted on a hind limb strain gauge setup, in a commercially available grip force measurement system (Columbus Instruments, Columbus, Ohio).
# During testing, each rat was gently restrained by grasping it around its rib cage and then allowed to grasp the wire mesh frame attached to the strain gauge. The experimenter then moved the animal in a rostral-to-caudal direction until the grip was broken. Each rat was sequentially tested twice at approximately 2-3 min interval to obtain a raw mean grip force (CFmax). This raw mean grip force data was in turn converted to a maximum hindlimb cumulative compressive force (CFmax), as the grams of force/kg of body weight, for each animal.
# For evaluating the compound effects, the hind limb grip force was conducted 20 days following the intra-articular injection of MIA. A group of age-matched naïve (not injected with MIA) animals was added as a comparator to the drug-dosed groups. The vehicle control response for each group of MIA-treated animals was defined as the 0% response (0% effect), whereas the naïve control group was defined as the normal response and as 100% effect. The % effects for each dose group was expressed as % return of response to normalcy, compared to the naïve group. That is, the % effect=(Treatment CFmax−Vehicle CFmax)/Vehicle CFmax]×100). All experiments evaluating drug effects in this model were conducted in a randomized blinded fashion. […]
# mice = experiment: single trial 24-hour inhibitory avoidance model (memory); type: in vivo, mouse; conditions: 0.03 mg/kg, intraperitoneal injection, p<0.01 versus vehicle injected control mice
# Text: The ability of compounds to treat diseases with deficits in memory and cognition such as Alzheimer's disease, dementia, age-related cognitive impairment, schizophrenia, and cognitive deficits of schizophrenia can be assessed in animal models. One model assessing the capability of a compound to enhance memory is the single trial 24-hour inhibitory avoidance model, described in Tietje et al. (Tietje, K. R., et al. “Preclinical Characterization of A-582941: A Novel α7 Neuronal Nicotinic Receptor Agonist with Broad Spectrum Cognition-Enhancing Properties” CNS Neuroscience and Therapeutics 2008 v14 pp. 65-82). In this mouse model, at a dose of 0.03 mg/kg, administered by intraperitoneal injection, the compound of Example 20 ((R)-2-(2-(3-(piperidin-1-yl)pyrrolidin-1-yl)benzo[d]thiazol-6-yl)pyridazin-3(2H)-one) achieved full efficacy, (p<0.01 versus vehicle injected control mice).
structure (smiles),measurement,setting,value
"O=c1cccnn1-c1ccc2nc(N3CC[C@@H](N4CCCCC4)C3)sc2c1 [Example 20, (R)-2-(2-(3-(piperidin-1-yl)pyrrolidin-1-yl)benzo[d]thiazol-6-yl)pyridazin-3(2H)-one]",reduction in mechanical allodynia,"Male Sprague Dawley rats; 3 mg/kg, p<0.01",40%
same,adverse effects,Male Sprague Dawley rats; neuropathic pain model,No complicating adverse effects were observed
same,effect on hind limb grip force,[1]; 1 mg/kg,49%
same,effect on hind limb grip force,[1]; 3 mg/kg,69%
same,adverse effects,[1]; osteoarthritis model,No complicating adverse effects were observed
same,efficacy in inhibitory avoidance (memory enhancement),mice,full efficacy
